Experimental data as given in BindingDB's records for PubMed 6248635 (Stanford University, 1980).
Several values for one entry are separate records, joined by “and”; a condition that tells them apart may be missing. Equal entries are not always repeated.

Legend:
Beta-arrestin-1 = Beta-arrestin-1 (Oryctolagus cuniculus, UniProt Q95223)
Opioid receptor delta 1 = Opioid receptor delta 1 (Bos taurus, UniProt F1N083)
[1] = target: Delta-type opioid receptor (Mus musculus, UniProt P32300)
Chain of Delta-type opioid receptor (P32300 whole entry): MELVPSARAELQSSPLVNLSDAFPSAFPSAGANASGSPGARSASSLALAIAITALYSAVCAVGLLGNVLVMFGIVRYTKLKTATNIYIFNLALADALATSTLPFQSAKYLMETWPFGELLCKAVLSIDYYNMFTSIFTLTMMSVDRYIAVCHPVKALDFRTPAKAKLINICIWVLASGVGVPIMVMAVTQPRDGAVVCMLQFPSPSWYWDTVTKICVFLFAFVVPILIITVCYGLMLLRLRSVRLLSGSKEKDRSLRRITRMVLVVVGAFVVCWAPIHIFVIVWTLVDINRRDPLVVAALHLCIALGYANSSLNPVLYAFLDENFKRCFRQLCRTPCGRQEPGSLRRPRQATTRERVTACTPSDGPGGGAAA

Chain of Beta-arrestin-1 (Q95223 whole entry): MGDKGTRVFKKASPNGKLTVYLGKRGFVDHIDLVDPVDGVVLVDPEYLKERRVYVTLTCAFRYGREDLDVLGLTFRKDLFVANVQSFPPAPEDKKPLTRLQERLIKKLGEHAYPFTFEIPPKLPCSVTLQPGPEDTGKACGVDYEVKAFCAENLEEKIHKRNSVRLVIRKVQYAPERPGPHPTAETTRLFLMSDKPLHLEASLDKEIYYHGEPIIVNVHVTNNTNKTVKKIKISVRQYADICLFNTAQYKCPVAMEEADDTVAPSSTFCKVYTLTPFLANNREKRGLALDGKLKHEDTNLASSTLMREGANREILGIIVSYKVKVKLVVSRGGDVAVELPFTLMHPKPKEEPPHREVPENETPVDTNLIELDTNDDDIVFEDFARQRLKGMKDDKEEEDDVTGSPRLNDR
Chain of Opioid receptor delta 1 (F1N083 whole entry): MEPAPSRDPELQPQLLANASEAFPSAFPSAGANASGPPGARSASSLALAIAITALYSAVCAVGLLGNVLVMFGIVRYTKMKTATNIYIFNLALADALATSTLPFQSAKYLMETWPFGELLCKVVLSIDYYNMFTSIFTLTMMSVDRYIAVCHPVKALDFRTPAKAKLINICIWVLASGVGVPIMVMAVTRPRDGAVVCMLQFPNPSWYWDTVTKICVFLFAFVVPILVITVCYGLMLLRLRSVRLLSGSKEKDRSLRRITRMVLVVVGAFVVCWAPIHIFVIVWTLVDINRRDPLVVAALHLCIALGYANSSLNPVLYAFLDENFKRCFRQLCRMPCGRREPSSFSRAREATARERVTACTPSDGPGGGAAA

`CC(C)C[C@H](NC(=O)[C@H](Cc1ccccc1)NC(=O)CNC(=O)[C@@H](C)NC(=O)[C@@H](N)Cc1ccc(O)cc1)C(=O)O` [DALLE] was tested, and the Ki (Beta-arrestin-1) was 3.6 nM and the Ki (Opioid receptor delta 1) was 1.8 nM and 7.4 nM.

With `CN1CC[C@]23c4c5ccc(O)c4O[C@H]2[C@@H](O)CCC3[C@H]1C5` (stereo partly drawn) [DIHYDROMORPHINE] the Ki [1] was 127 nM and the Ki (Opioid receptor delta 1) was 38.1 nM and 35.6 nM.

`C=CCN1CC[C@]23c4c5ccc(O)c4O[C@H]2C(=O)CC[C@@]3(O)[C@H]1C5` [[17-(2,3-3H-2-propenyl)]-4,5a-epoxy-3,14-dihydroxymorphinan-6-one] showed a Ki (Beta-arrestin-1) of 67.4 nM.

With `CC(C)C[C@@H](NC(=O)[C@H](Cc1ccccc1)NC(=O)CNC(=O)[C@@H](C)NC(=O)[C@@H](N)Cc1ccc(O)cc1)C(=O)O` [[D-Ala2-D-Leu5]enkephalin] the Ki (Opioid receptor delta 1) was 1.8 nM and 9.7 nM.

“H-YGGFMTSEKSQTPLVTLFKNAIVKNAHKKGQ-OH [Beta-Endorphin]” was tested, and the Ki (Beta-arrestin-1) was 21 nM and the Ki (Opioid receptor delta 1) was 14 nM and 58.1 nM.
